Data as given in patent publication US20130096163A1, “Injectable dosage form of flupirtine” (AWD.PHARMA GMBH & CO. KG, priority 2010, published 2013).
Where two headings read alike, the source gives them in different places.

Assay: Solubility of flupirtine salts in water (stirring a suspension, filtration, HPLC-UV)
Assay type: physicochemical
Experimental: The solubility of the salt used is determined by stirring a suspension of a defined quantity of the corresponding salt for 30 minutes in a closed container in fully desalinated water at 25° C. The undissolved portion of the salt is filtered off, the filtrate is diluted to a suitable concentration range, and the flupirtine concentration of the solution determined using HPLC-UV (high performance liquid chromatography with UV-detection).
In a preferred embodiment of the invention, the flupirtine salt contained in the lyophilisate is selected from flupirtine mesilate, flupirtine besilate and/or flupirtine phosphate. Table 1shows the respective solubility of each of these flupirtine salts in water at 25° C. The solubility has been determined as described above.

**Q.** With CCOC(=O)Nc1ccc(NCc2ccc(F)cc2)nc1N.O=S(=O)(O)c1ccccc1 [Flupirtine besilate] as the molecule, how does the “Solubility” value (in fully desalinated water at 25° C., suspension stirred 30 minutes, filtrate by HPLC-UV) read?
**A.** 2.8 mg/mL

**Q.** For Flupirtine mesilate, which “Solubility” value is on record?
**A.** 16.8 mg/mL

**Q.** With Flupirtine phosphate as the molecule, how does the “Solubility” value read?
**A.** 13.6 mg/mL
